For the experiment, the system named is Mycobacterium tuberculosis. Briefly: Antimicrobial activity against rifampin and isoniazid resistant Mycobacterium tuberculosis Beijing harboring rpoB Ser 531-Leu 315 and katC Ser-Thr mutant incubated for 10 days by microbroth dilution method. It counts as functional. In general terms: Dilution methods test growth across graded concentrations, often in twofold steps.

As a reminder, the MIC is the smallest concentration in the dilution series that meets the test's criterion for growth inhibition. Read a low MIC as inhibition by little substance.

≈ marks a conversion by molar mass, not a printed value.

Turning to `CCOc1cccc2cc(-c3cc4c(cc3F)c(=O)c(C(=O)O)cn4CC)c(=O)oc12`, the minimum inhibitory concentration (MIC) is 1.5 µg/mL (≈ 3.54 µM). The figure for `CCn1cc(C(=O)O)c(=O)c2cc(F)c(-c3cc4cc(C(C)(C)C)cc(C(C)(C)C)c4oc3=O)cc21` is 3.1 µg/mL (≈ 6.31 µM). The figure for `CCn1cc(C(=O)O)c(=O)c2cc(F)c(-c3cc4cc(Br)ccc4oc3=O)cc21` is 6.2 µg/mL (≈ 13.5 µM).
